A short description of data set [1]: Cytotoxicity against human H226 cells. It is filed as functional, cell-based. Particulars: NCI-H226.
The test system of data set [2] is EVSA-T. Put plainly: Cytotoxicity against human EVSA-T cells. In kind it is functional, cell-based.
The subject of data set [3] is PC-3. As to the kind of experiment: Cytotoxicity against ERbeta positive human PC3 cells. It is filed as functional, cell-based.
Data set [4] deals with M19 melanoma cell line (human). As to the kind of experiment: Cytotoxicity against human M19 melanoma cells.
Data set [5] deals with MDA-MB-231. Put plainly: Cytotoxicity against ERalpha negative human MDA-MB-231 cells. In kind it is functional, cell-based.
Data set [6] deals with A498. Put plainly: Cytotoxicity against human A498 cells. In kind it is functional, cell-based.
The nature of data set [7]: Cytotoxicity against human IGROV cells. It is filed as functional, cell-based.
Data set [8] relates to MCF7. As to the kind of experiment: Cytotoxicity against ERalpha positive human MCF7 cells. It is filed as functional, cell-based.
Data set [9] relates to MCF7. As to the kind of experiment: Cytotoxicity against human MCF7 cells. It is filed as functional, cell-based.
In data set [10] the test system is WiDr. Put plainly: Cytotoxicity against human WIDR cells. It is filed as functional, cell-based.
The nature of data set [11]: Aqueous solubility of the compound. It is filed as physicochemical. The conditions noted are these: aqueous solution.
Data set [12] can be described thus: Half life in DTT buffer assessed as taxol release. It is filed as ADME.
Data set [13] concerns A2780. Put plainly: Cytotoxicity against ERbeta negative human A2780 cells. In kind it is functional, cell-based.

Values after ≈ are worked out from the molar mass of the structure shown.

Broadly, the IC50 is the concentration needed to halve the response being measured. Read a high IC50 as a need for much substance. As a reminder, the solubility is the concentration that dissolves in the medium under given conditions. Read a high solubility as much dissolved substance.

Regarding `CC(=O)O[C@H]1C(=O)[C@@]2(C)[C@H]([C@H](OC(=O)c3ccccc3)[C@]3(O)C[C@H](OC(=O)[C@H](OC(=O)NCCNC(=O)[C@H](CCCCN)NC(=O)[C@H](Cc4ccccc4)NC(=O)[C@@H](C)N)[C@@H](NC(=O)c4ccccc4)c4ccccc4)C(C)=C1C3(C)C)[C@]1(OC(C)=O)CO[C@@H]1C[C@@H]2O.Cl`, the half-inhibitory concentration (IC50) in [1] is 0.041 µg/mL; in data set [2], 0.011 µg/mL; in data set [3], 77 nM; in data set [4], 0.045 µg/mL; in [5] it was 4.5 nM; in data set [6], 0.04 µg/mL. The IC50 in [7] stood at 0.019 µg/mL; in data set [8], 4.9 nM; in data set [9], 0.016 µg/mL; in data set [10] it was 0.013 µg/mL.

On to `CC(=O)O[C@H]1C(=O)[C@@]2(C)[C@H]([C@H](OC(=O)c3ccccc3)[C@]3(O)C[C@H](OC(=O)[C@H](OC(=O)C[C@H](O)C(=O)[O-])[C@@H](NC(=O)c4ccccc4)c4ccccc4)C(C)=C1C3(C)C)[C@]1(OC(C)=O)CO[C@@H]1C[C@@H]2O.[Na+]`, for which the IC50 in data set [2] and in data set [9] was less than 0.003 µg/mL in each case. The amount in solution in data set [11] (solubility) came to 600 µg/mL.

Regarding `CC(=O)O[C@H]1C(=O)[C@@]2(C)[C@H]([C@H](OC(=O)c3ccccc3)[C@]3(O)C[C@H](OC(=O)[C@H](OC(=O)C(C)(C)CCSSc4ccccn4)[C@@H](NC(=O)c4ccccc4)c4ccccc4)C(C)=C1C3(C)C)[C@]1(OC(C)=O)CO[C@@H]1C[C@@H]2O`, in [12], the t1/2 was 4 min.

On to `CC(=O)O[C@H]1C(=O)[C@@]2(C)[C@H]([C@H](OC(=O)c3ccccc3)[C@]3(O)C[C@H](OC(=O)[C@@H](OC(=O)/C=C/C[C@@H]4C[C@H]5[C@@H]6CCc7cc(O)ccc7[C@H]6CC[C@]5(C)[C@H]4O)[C@@H](NC(=O)c4ccccc4)c4ccccc4)C(C)=C1C3(C)C)[C@]1(OC(C)=O)CO[C@@H]1C[C@@H]2O`, for which the IC50 in [13] was determined as 8300 nM; in data set [3], 120 nM; in data set [5] it was 2200 nM; in [8], 1600 nM.

In the case of `CC(=O)O[C@H]1C(=O)[C@@]2(C)[C@H]([C@H](OC(=O)c3ccccc3)[C@]3(O)C[C@H](OC(=O)[C@H](OC(=O)N(C)CCNC(=O)[C@H](CCCCN)NC(=O)[C@H](Cc4ccccc4)NC(=O)[C@H](N)C(C)C)[C@@H](NC(=O)c4ccccc4)c4ccccc4)C(C)=C1C3(C)C)[C@]1(OC(C)=O)CO[C@@H]1C[C@@H]2O.Cl`, the IC50 in data set [1] is 0.048 µg/mL; in [2], greater than 0.063 µg/mL; in data set [3], 77 nM; in [4], 0.047 µg/mL; in data set [5], 4.5 nM; in [6] it was greater than 0.063 µg/mL. For the same molecule, the IC50 in data set [7] was 0.045 µg/mL; in data set [8], 4.9 nM; in data set [9], greater than 0.063 µg/mL; in [10] it was 0.047 µg/mL.

Consider `CC(=O)O[C@H]1C(=O)[C@@]2(C)[C@H]([C@H](OC(=O)c3ccccc3)[C@]3(O)C[C@H](OC(=O)[C@H](OC(=O)N(C)CCN(C)C(=O)[C@H](CCCCN)NC(=O)[C@H](CC(C)C)NC(=O)[C@H](N)C(C)C)[C@@H](NC(=O)c4ccccc4)c4ccccc4)C(C)=C1C3(C)C)[C@]1(OC(C)=O)CO[C@@H]1C[C@@H]2O.Cl`, for which the IC50 came to 0.025 µg/mL in data set [1]; 0.0052 µg/mL in [2]; 77 nM in data set [3]; 0.024 µg/mL in [4]; 4.5 nM in data set [5]; 0.045 µg/mL in data set [6]. The 50% inhibitory concentration (IC50) was determined as 0.026 µg/mL in data set [7], 4.9 nM in data set [8], 0.0069 µg/mL in data set [9] and 0.011 µg/mL in data set [10].

Take `CC(=O)O[C@H]1C(=O)[C@@]2(C)[C@H]([C@H](OC(=O)c3ccccc3)[C@]3(O)C[C@H](OC(=O)[C@H](OC(=O)OCc4ccc(NC(=O)[C@H](CCCCN)NC(=O)[C@H](CC(C)C)NC(=O)[C@H](N)C(C)C)cc4)[C@@H](NC(=O)c4ccccc4)c4ccccc4)C(C)=C1C3(C)C)[C@]1(OC(C)=O)CO[C@@H]1C[C@@H]2O.Cl`: the half-inhibitory concentration (IC50) was 0.016 µg/mL in data set [1]; 0.0093 µg/mL in [2]; 0.02 µg/mL in data set [4]; greater than 0.06 µg/mL in data set [6]; 0.027 µg/mL in data set [7]; 0.0092 µg/mL in data set [9]. The IC50 in data set [10] worked out at 0.011 µg/mL.

Turning to `CC(=O)O[C@H]1C(=O)[C@]2(C)[C@@H](OC(=O)C[C@H](O)C(=O)O)C[C@H]3OC[C@@]3(OC(C)=O)[C@H]2[C@H](OC(=O)c2ccccc2)[C@]2(O)C[C@H](OC(=O)[C@H](OC(=O)C[C@H](O)C(=O)O)[C@@H](NC(=O)c3ccccc3)c3ccccc3)C(C)=C1C2(C)C`, the concentration for half-maximal inhibition (IC50) in data set [2] is 0.059 µg/mL (≈ 0.0543 µM); in [9], 0.069 µg/mL (≈ 0.0635 µM). In data set [11], this molecule gave a solubility of 500 µg/mL (≈ 460 µM).

On to `CC(=O)O[C@H]1C(=O)[C@@]2(C)[C@H]([C@H](OC(=O)c3ccccc3)[C@]3(O)C[C@H](OC(=O)[C@H](OC(=O)/C=C/C[C@@H]4C[C@H]5[C@@H]6CCc7cc(O)ccc7[C@H]6CC[C@]5(C)[C@H]4O)[C@@H](NC(=O)c4ccccc4)c4ccccc4)C(C)=C1C3(C)C)[C@]1(OC(C)=O)CO[C@@H]1C[C@@H]2O`, for which the half-inhibitory concentration (IC50) in [13] came to 180 nM; in [3], 73 nM; in [5], 22 nM; in data set [8], 39 nM.

On to `CC(=O)O[C@H]1C(=O)[C@@]2(C)[C@H]([C@H](OC(=O)c3ccccc3)[C@]3(O)C[C@H](OC(=O)[C@H](OC(=O)OC/C=C/c4ccc([N+](=O)[O-])cc4)[C@@H](NC(=O)c4ccccc4)c4ccccc4)C(C)=C1C3(C)C)[C@]1(OC(C)=O)CO[C@@H]1C[C@@H]2O`, for which the half-maximal inhibitory concentration (IC50) in [1] was 0.187 µg/mL (≈ 0.177 µM); in [2], 0.221 µg/mL (≈ 0.209 µM); in [4], 0.384 µg/mL (≈ 0.363 µM); in data set [6], 0.187 µg/mL (≈ 0.177 µM); in data set [7], 0.62 µg/mL (≈ 0.585 µM); in data set [9] it was 0.186 µg/mL (≈ 0.176 µM). In [10], the concentration for half-maximal inhibition (IC50) worked out at 0.308 µg/mL (≈ 0.291 µM).

In the case of `CC(=O)O[C@H]1C(=O)[C@@]2(C)[C@H]([C@H](OC(=O)c3ccccc3)[C@]3(O)C[C@H](OC(=O)[C@H](OC(=O)C(C)(C)CCSSCC(NC(=O)CCC(N)C(=O)O)C(=O)NCC(=O)O)[C@@H](NC(=O)c4ccccc4)c4ccccc4)C(C)=C1C3(C)C)[C@]1(OC(C)=O)CO[C@@H]1C[C@@H]2O` (some centres undefined), the t1/2 in data set [12] stood at 60 min.

With `CC(=O)O[C@H]1C(=O)[C@@]2(C)[C@H]([C@H](OC(=O)c3ccccc3)[C@]3(O)C[C@H](OC(=O)[C@H](OC(=O)N(C)CCN(C)C(=O)[C@H](CCCCN)NC(=O)[C@H](Cc4ccccc4)NC(=O)[C@@H](C)N)[C@@H](NC(=O)c4ccccc4)c4ccccc4)C(C)=C1C3(C)C)[C@]1(OC(C)=O)CO[C@@H]1C[C@@H]2O.Cl`, the IC50 was 0.021 µg/mL in data set [1]; 0.0072 µg/mL in [2]; 77 nM in data set [3]; 0.017 µg/mL in data set [4]; 4.5 nM in data set [5]; 0.038 µg/mL in data set [6]. In addition, the IC50 in [7] came out at 0.011 µg/mL; in data set [8], 4.9 nM; in [9] it was 0.0066 µg/mL; in data set [10] it was 0.01 µg/mL.

As to `CC(=O)O[C@H]1C(=O)[C@@]2(C)[C@H]([C@H](OC(=O)c3ccccc3)[C@]3(O)C[C@H](OC(=O)[C@H](OC(=O)CCC(=O)O[C@@H]4C[C@]5(C)[C@@H](O)CC[C@H]5[C@@H]5CCc6cc(O)ccc6[C@H]54)[C@@H](NC(=O)c4ccccc4)c4ccccc4)C(C)=C1C3(C)C)[C@]1(OC(C)=O)CO[C@@H]1C[C@@H]2O`, the IC50 was found to be 680 nM in [13], 40 nM in data set [3], 51 nM in [5] and 62 nM in data set [8].

The record behind these values is ChEMBL document CHEMBL1140624, “Improved biochemical strategies for targeted delivery of taxoids” (Bioorg Med Chem, 2007).
